The record followed here is patent publication US9919998B2, “Antibacterial agents: Nα-aroyl-N-aryl-phenylalaninamides” (priority 2014, dated 2018).

Format in all cases: cell-based
In data set [1] the test system is Vero E6 ATCC CRL1586 cells. The data set can be described thus: Mammalian-cell cytotoxicity, minimal cytotoxic concentration (CellTiter96). Here is the method: Minimal cytotoxic concentrations (MCCs) against mammalian cells in culture were determined using Vero E6 ATCC CRL1586 cells and the CellTiter96 assay kit (Promega, Inc.). […]
Data set [2] deals with Mycobacterium smegmatis ATCC 19420. The data set is described as follows: Broth microdilution MIC, M. smegmatis. The following applies: Mycolicibacterium smegmatis, ATCC19420, M. smegmatis ATCC 19420; read-out: MIC Mycobacterium smegmatis ATCC 19420. The source says:
MICs in Mycobacterium smegmatis ATCC 19420 and Mycobacterium smegmatis ATCC 19420 derivatives were quantified using broth microdilution assays as described [Clinical and Laboratory Standards Institute (CLSI/NCCLS) (2009) Methods for Dilution Antimicrobial Susceptibility Tests for Bacteria That Grow Aerobically; Approved Standard, Eighth Edition. CLIS Document M07-A8 (CLIS, Wayne Pa.)].
(Broth dilution looks for growth in wells or tubes with falling amounts of substance.)

For data set [3], the system named is Mycobacterium avium ATCC 25291. The data set can be described thus: Microplate Alamar Blue assay (MABA) MIC, M. avium. The following applies: ATCC25291, M. avium ATCC 25291. The text has this:
(§1) Minimal inhibitory concentrations (MICs) in Mycobacterium tuberculosis H37Rv and Mycobacterium avium ATCC 25291 were quantified using microplate Alamar Blue assays as described (MABA; [Collins, L. & Franzblau, S. (1997) Microplate Alamar Blue assay versus BACTEC 460 system for high-throughput screening of compounds against Mycobacterium tuberculosis and Mycobacterium avium. Antimicrob. Agents Chemother. 41, 1004-1009]).
On the technique in general: The colour change of resazurin is a common sign of viable cells or microbes.

Data set [4] relates to Mycobacterium tuberculosis H37Rv. The data set can be described thus: Microplate Alamar Blue assay (MABA) MIC, M. tuberculosis. The following applies: read-out: MIC Mycobacterium tuberculosis H37Rv.
Excerpt: as §1

SMILES strings stand for the structures. ≈ marks a conversion by molar mass, not a printed value.

In general, MIC refers to the lowest concentration found to suppress growth. For the compound `O=C(NC(Cc1ccccc1)C(=O)Nc1cccc2ncccc12)c1ccccc1Cl` (stereo not shown) [IX-64, 2-chloro-N-(1-oxo-3-phenyl-1-(quinolin-5-ylamino)propan-2-yl)benzamide], the “MCC mammalian cells Vero E6 ATCC CRL1586” value in data set [1] was determined as 78 µg/mL. Besides, the figures for the MIC in data set [2], in data set [3] and in data set [4] were 0.78 µg/mL (≈ 1.81 µM), 50 µg/mL (≈ 116 µM) and 12.5 µg/mL (≈ 29.1 µM), respectively.
Take `O=C(NC(Cc1ccccc1)C(=O)Nc1cccc2c1OCCO2)c1ccccc1Cl` (stereo not shown) [IX-65, 2-chloro-N-(1-((2,3-dihydrobenzo[b][1,4]dioxin-5-yl)amino)-1-oxo-3-phenylpropan-2-yl)benzamide]: the “MCC mammalian cells Vero E6 ATCC CRL1586” value in data set [1] was determined as 18 µg/mL. Further, the minimum inhibitory concentration (MIC) in data set [2] worked out at 0.78 µg/mL (≈ 1.79 µM); in data set [3], 6.25 µg/mL (≈ 14.3 µM); in data set [4] it was 3.12 µg/mL (≈ 7.15 µM).
Take `Cc1ccc(Cl)cc1NC(=O)C(Cc1ccccc1)NC(=O)c1ccccc1C` (stereo not shown) [IX-67, N-(1-((5-chloro-2-methylphenyl)amino)-1-oxo-3-phenylpropan-2-yl)-2-methylbenzamide]: the “MCC mammalian cells Vero E6 ATCC CRL1586” value in data set [1] came out at 8 µg/mL. Besides, the MIC in data set [2] was 0.19 µg/mL (≈ 0.467 µM); in data set [3], 1.56 µg/mL (≈ 3.83 µM); in data set [4], 1.56 µg/mL (≈ 3.83 µM).
For the compound `COc1ccccc1NC(=O)C(Cc1ccccc1)NC(=O)c1ccccc1C` (stereo not shown) [IX-68, N-(1-((2-methoxyphenyl)amino)-1-oxo-3-phenylpropan-2-yl)-2-methylbenzamide], the “MCC mammalian cells Vero E6 ATCC CRL1586” value in data set [1] stood at 17 µg/mL. The MIC in data set [2] amounted to 0.39 µg/mL (≈ 1 µM); in data set [3], 6.25 µg/mL (≈ 16.1 µM); in data set [4] it was 3.12 µg/mL (≈ 8.04 µM).
The corresponding values for `Cc1ccccc1C(=O)NC(Cc1ccccc1)C(=O)Nc1cccc2cnccc12` (stereo not shown) [IX-69, N-(1-(isoquinolin-5-ylamino)-1-oxo-3-phenylpropan-2-yl)-2-methylbenzamide] are >100 µg/mL, 0.39 µg/mL (≈ 0.952 µM), 3.12 µg/mL (≈ 7.63 µM) and 3.12 µg/mL (≈ 7.63 µM).
`Cc1ccccc1C(=O)NC(Cc1ccccc1)C(=O)Nc1cccc2ncccc12` (stereo not shown) [IX-70, 2-methyl-N-(1-oxo-3-phenyl-1-(quinolin-5-ylamino)propan-2-yl)benzamide]: the “MCC mammalian cells Vero E6 ATCC CRL1586” value in data set [1] was found to be 63 µg/mL. The minimum inhibitory concentration (MIC) in data set [2] was found to be 0.39 µg/mL (≈ 0.952 µM); in data set [3], 25 µg/mL (≈ 61.1 µM); in data set [4], 12.5 µg/mL (≈ 30.5 µM).
The corresponding values for `Cc1ccccc1C(=O)NC(Cc1ccccc1)C(=O)Nc1cccc2c1OCCO2` (stereo not shown) [IX-71, N-(1-((2,3-dihydrobenzo[b][1,4]dioxin-5-yl)amino)-1-oxo-3-phenylpropan-2-yl)-2-methylbenzamide] are 10 µg/mL, 0.39 µg/mL (≈ 0.936 µM), 3.12 µg/mL (≈ 7.5 µM) and 1.56 µg/mL (≈ 3.75 µM).
Take `O=C(NC(Cc1ccccc1)C(=O)Nc1cccc2c1OCO2)c1ccccc1` (stereo not shown) [IX-72, N-(1-(benzo[d][1,3]dioxol-4-ylamino)-1-oxo-3-phenylpropan-2-yl)benzamide]: the “MCC mammalian cells Vero E6 ATCC CRL1586” value in data set [1] turned out to be 33 µg/mL. The MIC in data set [2] amounted to 0.095 µg/mL (≈ 0.245 µM); in data set [3] it was 3.12 µg/mL (≈ 8.05 µM); in data set [4] it was 6.25 µg/mL (≈ 16.1 µM).
The corresponding values for `O=C(NC(Cc1ccccc1)C(=O)Nc1cc(F)cc2ncccc12)c1ccccc1` (stereo not shown) [IX-75, N-(1-((7-fluoroquinolin-5-yl)amino)-1-oxo-3-phenylpropan-2-yl)benzamide] are >100 µg/mL, 0.39 µg/mL (≈ 0.943 µM), 0.78 µg/mL (≈ 1.89 µM) and 0.78 µg/mL (≈ 1.89 µM).
The corresponding values for `Cc1ccc(F)cc1NC(=O)C(Cc1ccccc1)NC(=O)c1cccs1` (stereo not shown) [IX-79, N-(1-((5-fluoro-2-methylphenyl)amino)-1-oxo-3-phenylpropan-2-yl)thiophene-2-carboxamide] are 23 µg/mL, 0.19 µg/mL (≈ 0.497 µM), 1.56 µg/mL (≈ 4.08 µM) and 1.56 µg/mL (≈ 4.08 µM).
As for `Cc1ccc(F)cc1NC(=O)C(Cc1ccccc1)NC(=O)c1cccc2[nH]ccc12` (stereo not shown) [IX-80, N-(1-((5-fluoro-2-methylphenyl)amino)-1-oxo-3-phenylpropan-2-yl)-1H-indole-4-carboxamide], the “MCC mammalian cells Vero E6 ATCC CRL1586” value in data set [1] was found to be 33 µg/mL. The figures for the MIC in data set [2], in data set [3] and in data set [4] were 0.195 µg/mL (≈ 0.469 µM), 3.12 µg/mL (≈ 7.52 µM) and 1.56 µg/mL (≈ 3.75 µM), respectively.
The corresponding values for `Cc1ccc(F)cc1NC(=O)C(Cc1ccccc1)NC(=O)c1ccccc1F` (stereo not shown) [IX-81, 2-fluoro-N-(1-((5-fluoro-2-methylphenyl)amino)-1-oxo-3-phenylpropan-2-yl)benzamide] are 38 µg/mL, 0.195 µg/mL (≈ 0.494 µM), 3.12 µg/mL (≈ 7.92 µM) and 1.56 µg/mL (≈ 3.96 µM).
On to `Cc1ccc(F)cc1NC(=O)C(Cc1ccccc1)NC(=O)c1ccccc1Cl` (stereo not shown) [IX-82, 2-chloro-N-(1-((5-fluoro-2-methylphenyl)amino)-1-oxo-3-phenylpropan-2-yl)benzamide], for which the “MCC mammalian cells Vero E6 ATCC CRL1586” value in data set [1] was 20 µg/mL. In addition, the figures for the minimum inhibitory concentration (MIC) in data set [2], in data set [3] and in data set [4] were 0.39 µg/mL (≈ 0.949 µM), 3.12 µg/mL (≈ 7.61 µM) and 1.56 µg/mL (≈ 3.8 µM), respectively.
The corresponding values for `Cc1ccc(F)cc1NC(=O)C(Cc1ccccc1)NC(=O)c1ccccc1C` (stereo not shown) [IX-83, N-(1-((5-fluoro-2-methylphenyl)amino)-1-oxo-3-phenylpropan-2-yl)-2-methylbenzamide] are 1.4 µg/mL, 0.195 µg/mL (≈ 0.499 µM), 1.56 µg/mL (≈ 4 µM) and 0.78 µg/mL (≈ 2 µM).
In the case of `O=C(NC(Cc1ccccc1)C(=O)Nc1cccc2ncccc12)c1cccs1` (stereo not shown) [IX-85, N-(1-oxo-3-phenyl-1-(quinolin-5-ylamino)propan-2-yl)thiophene-2-carboxamide], the “MCC mammalian cells Vero E6 ATCC CRL1586” value in data set [1] came to 40 µg/mL. In addition, the MIC in data set [2] was found to be 0.39 µg/mL (≈ 0.971 µM); in data set [3], 25 µg/mL (≈ 62.3 µM); in data set [4] it was 12.5 µg/mL (≈ 31.1 µM).
For the compound `O=C(NC(Cc1ccccc1)C(=O)Nc1cccc2c1CCCC2)c1cccs1` (stereo not shown) [IX-86, N-(1-oxo-3-phenyl-1-((5,6,7,8-tetrahydronaphthalen-1-yl)amino)propan-2-yl)thiophene-2-carboxamide], the “MCC mammalian cells Vero E6 ATCC CRL1586” value in data set [1] came out at 50 µg/mL. For the same compound, the minimum inhibitory concentration (MIC) in data set [2] is 0.78 µg/mL (≈ 1.93 µM); in data set [3], > 50 µg/mL; in data set [4], > 50 µg/mL.
`O=C(NC(Cc1ccccc1)C(=O)Nc1cccc2[nH]ccc12)c1ccccc1F` (stereo not shown) [IX-91, N-(1-((1H-indol-4-yl)amino)-1-oxo-3-phenylpropan-2-yl)-2-fluorobenzamide]: the “MCC mammalian cells Vero E6 ATCC CRL1586” value in data set [1] was 65 µg/mL. The minimum inhibitory concentration (MIC) in data set [2] is 1.56 µg/mL (≈ 3.89 µM); in data set [3], 50 µg/mL (≈ 125 µM); in data set [4], 50 µg/mL (≈ 125 µM).
As to `Cc1ccc(Cl)cc1NC(=O)C(Cc1ccc(O)cc1)NC(=O)c1cccs1` (stereo not shown) [IX-94, N-(1-((5-chloro-2-methylphenyl)amino)-3-(4-hydroxyphenyl)-1-oxopropan-2-yl)thiophene-2-carboxamide], the “MCC mammalian cells Vero E6 ATCC CRL1586” value in data set [1] worked out at 58 µg/mL. Also, the results for the MIC in data set [2], in data set [3] and in data set [4] were 0.78 µg/mL (≈ 1.88 µM), 3.12 µg/mL (≈ 7.53 µM) and 3.12 µg/mL (≈ 7.53 µM), respectively.
Take `O=C(NC(Cc1ccccc1)C(=O)Nc1cccc2cc[nH]c12)c1ccccc1Cl` (stereo not shown) [IX-95, N-(1-((1H-indol-7-yl)amino)-1-oxo-3-phenylpropan-2-yl)-2-chlorobenzamide]: the “MCC mammalian cells Vero E6 ATCC CRL1586” value in data set [1] was found to be 20 µg/mL. For the same compound, the MIC in data set [2] worked out at 0.39 µg/mL (≈ 0.933 µM); in data set [3], 25 µg/mL (≈ 59.8 µM); in data set [4], 12.5 µg/mL (≈ 29.9 µM).
